For the data set the following is noted: Crystal; DTA.

Structures are written as SMILES. Numbers after ± are expanded uncertainties.

With `O=C1OCCO1` [ethylene carbonate], the Normal melting temperature was 38.00 ± 1 °C.

The record behind these values is the NIST ThermoML archive (doi:10.1016/j.tca.2016.09.007).
